These results are taken from PMC8037530, “Synthesis and Hybrid SAR Property Modeling of Novel Cholinesterase Inhibitors” (International Journal of Molecular Sciences, 2021).

Like-named read-outs stand apart in the source and are kept apart here.

Data set [1] is described as follows: Determination of lipophilicity by RP-HPLC (capacity factor k). The class given is physicochemical. Conditions: C18, isocratic MeOH 72%/H2O 28%, 40 °C. On the procedure:
The lipophilicity of all the target compounds was investigated by means of RP-HPLC determination of capacity factors k with a subsequent calculation of log k. The retention times of individual compounds were determined under isocratic conditions with methanol as an organic modifier in the mobile phase using end-capped non-polar C18 stationary RP columns.
The HPLC separation system Agilent 1200 series equipped with a DAD SL (Agilent Technologies) was used. A chromatographic column Symmetry® C18 5 μm, 4.6 × 250 mm, Part No. W21751W016 (Waters Corp., Milford, MA, USA) was applied. The HPLC separation process was monitored by the ChemStation for LC 3D chromatography software (Agilent Technologies). Isocratic elution by a mixture of MeOH p.a. (72%) and H2O-HPLC Mili-Q grade (28%) as a mobile phase was used for the determination of the capacity factor k. The total flow of the column was 1.0 mL/min, injection 20 μL, column temperature 40 °C, and sample temperature 10 °C. The detection wavelength of 210 nm was chosen. A KI methanolic solution was used for the determination of the dead times (tD). Retention times (tR) were measured in minutes. The capacity factors k were calculated according to the formula k = (tR − tD)/tD, where tR is the retention time of the solute and tD is the dead time obtained using an unretained analyte. Each experiment was repeated three times.

In another data set the target is T1, BChE from equine serum (Equus caballus, UniProt P81908).
T1 construct: BChE from equine serum; purchased Sigma, St. Louis, MO, USA; host or cells: equine serum
The data set can be described thus: In vitro BChE inhibition, modified Ellman's method. It is filed as biochemical. Conditions: for SI (index selectivity) = IC50 (AChE)/IC50 (BChE): ratio IC50 AChE/IC50 BChE. On the procedure:
(§1) The ability of all the prepared compounds to inhibit AChE from electric eel (Electrophorus electricus) and BChE from equine serum (both purchased from Sigma, St. Louis, MO, USA) was determined in vitro using a modified Ellman’s method, as described in detail elsewhere. This is a simple, rapid, and direct method to determine the SH and -S-S- group content in proteins. The enzyme activity is measured indirectly by quantifying the concentration of the 5-thio-2-nitrobenzoic acid ion formed in the reaction between the thiol reagent 5,5’-dithiobis-2nitrobenzoic acid (DTNB) and thiocholine, which is a product of acetylthiocholine hydrolysis catalyzed by cholinesterases. The effectiveness of the tested inhibitors is expressed as the IC50 values.
(§2) The enzyme activity in the final reaction mixture (2 mL) was 0.2 U/mL, the concentration of the substrate (acetylthiocholine or butyrythiocholine) was 40 µM, and the concentration of DTNB was 0.1 mM for all reactions. All reactions were carried out at 25 °C in the presence of phosphate-buffered saline (0.1 M, pH 7.4) in a glass cuvette with a 1 cm optical path. All the studied inhibitors were dissolved in DMSO (concentration 0.01 M) and then diluted in demineralized water as necessary. […] All measurements were carried out in triplicate, and the average values of the reaction rate (v0—reaction in the absence of the inhibitor, vi—reaction in the presence of the inhibitor) were used for construction of the dependence v0/vi vs. concentration of the inhibitor.
For orientation: DTNB colorimetry detects thiols as they appear.

Data set [2] can be described thus: In vitro cell viability assay (CCK-8). It is filed as cell-based. Conditions: human, THP-1 cells (human monocytic leukemia), read-out: relative cell viability. Here is the method: The human monocytic leukemia THP-1 cell line was selected for this purpose, as we described previously. Nor 2 neither 28 show negative effect on relative cell viability up to the concentration of 30 µM. The relative cell viability was around 100% at this concentration. It makes compounds 2 and 28 interesting for further pharmacological evaluation and allows them to become lead compounds.
Human monocytic leukemia THP-1 cells were used for in vitro antiproliferative assays. Cells were obtained from the European Collection of Cell Cultures (ECACC, Salisbury, UK) and routinely cultured in Roswell Park Memorial Institute RPMI 1640 medium supplemented with 10% fetal bovine serum (FBS), 2% L-glutamine, 1% penicillin and streptomycin (all from Sigma-Aldrich) at 37 °C with 5% CO2. Cells were passaged twice a week. The effect of the compounds on cell viability was determined using a Cell Counting Kit-8 (CCK-8, 2-(2-methoxy-4-nitrophenyl)-3-(4-nitrophenyl)-5-(2,4-disulfophenyl)-2H-tetrazolium, monosodium salt, Sigma) according to the manufacturer’s instructions. The compounds were dissolved in DMSO and added to the cell suspension in the RPMI 1640 medium without FBS (5 × 10^5 cells/mL). […] After this incubation period, the relative cell viability (the ratio between cells treated with compounds and cells treated only with DMSO) was determined by CCK-8 kit.

Data set [3] concerns the target T2, AChE from electric eel (Electrophorus electricus) (Electrophorus electricus, UniProt O42275).
T2 construct: purchased Sigma, St. Louis, MO, USA
The data set can be described thus: In vitro AChE inhibition, modified Ellman's method. It is filed as biochemical. Here is the method: as §1, §2

T2 sequence (O42275 24-633): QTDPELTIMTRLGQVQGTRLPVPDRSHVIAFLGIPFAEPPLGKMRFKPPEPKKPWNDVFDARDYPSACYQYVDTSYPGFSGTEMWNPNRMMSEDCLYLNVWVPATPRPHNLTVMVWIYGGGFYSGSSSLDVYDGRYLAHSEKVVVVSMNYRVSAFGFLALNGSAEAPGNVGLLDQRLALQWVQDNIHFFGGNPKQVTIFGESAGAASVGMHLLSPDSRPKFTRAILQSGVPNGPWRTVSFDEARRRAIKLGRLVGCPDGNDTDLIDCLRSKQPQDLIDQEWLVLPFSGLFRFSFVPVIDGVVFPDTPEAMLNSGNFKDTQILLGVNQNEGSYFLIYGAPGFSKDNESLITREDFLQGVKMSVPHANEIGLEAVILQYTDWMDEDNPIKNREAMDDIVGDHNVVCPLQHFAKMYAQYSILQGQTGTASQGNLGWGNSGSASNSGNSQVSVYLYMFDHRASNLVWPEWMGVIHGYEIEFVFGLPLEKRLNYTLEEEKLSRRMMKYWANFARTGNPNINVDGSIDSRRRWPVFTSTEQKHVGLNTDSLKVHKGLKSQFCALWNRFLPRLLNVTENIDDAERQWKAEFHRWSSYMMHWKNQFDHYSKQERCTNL
T1 sequence (P81908 whole entry): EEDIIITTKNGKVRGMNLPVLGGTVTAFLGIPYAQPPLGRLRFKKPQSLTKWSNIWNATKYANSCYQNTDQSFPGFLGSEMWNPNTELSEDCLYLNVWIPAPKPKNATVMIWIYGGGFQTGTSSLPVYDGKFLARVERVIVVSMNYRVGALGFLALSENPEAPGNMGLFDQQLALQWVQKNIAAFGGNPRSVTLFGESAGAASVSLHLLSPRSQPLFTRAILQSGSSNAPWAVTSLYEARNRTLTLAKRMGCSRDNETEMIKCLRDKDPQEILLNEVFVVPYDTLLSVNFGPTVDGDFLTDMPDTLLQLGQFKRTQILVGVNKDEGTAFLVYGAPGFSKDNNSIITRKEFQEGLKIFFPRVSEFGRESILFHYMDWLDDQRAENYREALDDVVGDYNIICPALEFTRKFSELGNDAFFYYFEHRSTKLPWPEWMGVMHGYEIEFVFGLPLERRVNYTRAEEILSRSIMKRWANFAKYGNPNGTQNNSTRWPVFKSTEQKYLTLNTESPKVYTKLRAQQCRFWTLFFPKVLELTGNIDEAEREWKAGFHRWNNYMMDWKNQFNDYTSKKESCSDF

As a reminder, the IC50 is the concentration that inhibits the measured activity by half. Usually viability stands for a per cent measure of how many cells are alive, often set against a control. Regarding `O=C(Nc1ccc(C(=O)Nc2c(F)cc(F)cc2F)c(O)c1)OCc1ccccc1` [Compound 28, Benzyl{3-hydroxy-4-[(2,4,6-trifluorophenyl)carbamoyl]phenyl}carbamate], in data set [1], the log k is reported as -0.0131. In addition, at BChE from equine serum, the concentration for half-maximal inhibition (IC50) turned out to be 31 ± 2.11 µM and the “SI (index selectivity) = IC50 (AChE)/IC50 (BChE)” value (from here on “SI (index selectivity) = IC50”) stood at 1.61. Besides, the viability at 24 h, 30 µM in data set [2] was approximately 100%. The molecule also yielded an IC50 in data set [3] of 49.87 ± 0.09 µM.

Take `COc1ccccc1NC(=O)c1ccc(NC(=O)OCc2ccccc2)cc1O` [Compound 2, Benzyl{3-hydroxy-4-[(2-methoxyphenyl)carbamoyl]phenyl}carbamate]: in data set [1], the log k came out at 0.3368. Besides, at BChE from equine serum, the IC50 stood at 22.2 ± 0.53 µM and the “SI (index selectivity) = IC50” value was found to be 2.26. Moreover, the viability at 24 h, 30 µM in data set [2] was approximately 100%. The molecule also had an IC50 in data set [3] of 50.1 ± 1.57 µM.

`O=C(Nc1ccc(C(=O)Nc2c(Cl)cc(Cl)cc2Cl)c(O)c1)OCc1ccccc1` [Compound 31, Benzyl{3-hydroxy-4-[(2,4,6-trichlorophenyl)carbamoyl]phenyl}carbamate] showed a log k in data set [1] of 0.3679. The IC50 is 57.1 ± 1.72 µM on BChE from equine serum and 93.1 ± 1.8 µM in data set [3]. At BChE from equine serum, the “SI (index selectivity) = IC50” value turned out to be 1.63.

Take `O=C(Nc1ccc(C(=O)Nc2ccc(Cl)c(Cl)c2)c(O)c1)OCc1ccccc1` [Compound 24, Benzyl{4-[(3,4-dichlorophenyl)carbamoyl]-3-hydroxyphenyl}carbamate]: in data set [1], the log k is on record as 0.6664. Besides, at BChE from equine serum, the half-maximal inhibitory concentration (IC50) is 185 ± 6.13 µM and the “SI (index selectivity) = IC50” value is given as 0.31. The same molecule gave an IC50 in data set [3] of 58 ± 5.83 µM.

Turning to `O=C(Nc1ccc(C(=O)Nc2ccccc2Cl)c(O)c1)OCc1ccccc1` [Compound 9, Benzyl{4-[(2-chlorophenyl)carbamoyl]-3-hydroxyphenyl}carbamate], in data set [1], the log k came to 0.5188. For the same molecule, at BChE from equine serum, the IC50 was 140.1 ± 0.35 µM and the “SI (index selectivity) = IC50” value was determined as 0.30. Also, the IC50 in data set [3] is 41.86 ± 0.15 µM.

In the case of `O=C(Nc1ccc(C(=O)Nc2cc(F)ccc2F)c(O)c1)OCc1ccccc1` [Compound 18, Benzyl{4-[(2,5-difluorophenyl)carbamoyl]-3-hydroxyphenyl}carbamate], the log k in data set [1] was 0.4012. At BChE from equine serum, the IC50 came to 157 ± 3.11 µM and the “SI (index selectivity) = IC50” value amounted to 0.37. In data set [3], this molecule registered an IC50 of 58.31 ± 0.2 µM.

`O=C(Nc1ccc(C(=O)Nc2cc(F)c(F)c(F)c2)c(O)c1)OCc1ccccc1` [Compound 29, Benzyl{3-hydroxy-4-[(3,4,5-trifluorophenyl)carbamoyl]phenyl}carbamate] registered a log k in data set [1] of 0.5169. Also, at BChE from equine serum, the IC50 is 183.7 ± 0.75 µM and the “SI (index selectivity) = IC50” value was determined as 0.34. The IC50 in data set [3] amounted to 62.3 ± 0.75 µM.

For the molecule `O=C(Nc1ccc(C(=O)Nc2cc(C(F)(F)F)cc(C(F)(F)F)c2)c(O)c1)OCc1ccccc1` [Compound 27, Benzyl{4-[(3,5-di(trifluoromethyl))carbamoyl]-3-hydroxyphenyl}carbamate], the log k in data set [1] came out at 0.9667. Besides, the IC50 is 146 ± 2.65 µM at BChE from equine serum (mean ± SD, n = 3, equine serum BChE, 25 °C, pH 7.4, read-out: IC50 BChE) and 59.4 ± 3.38 µM in data set [3] (mean ± SD, n = 3, electric eel AChE, 25 °C, pH 7.4, read-out: IC50 AChE). Moreover, at BChE from equine serum, the “SI (index selectivity) = IC50” value was determined as 0.41.

Take `O=C(Nc1ccc(C(=O)Nc2cccc(F)c2F)c(O)c1)OCc1ccccc1` [Compound 16, Benzyl{4-[(2,3-difluorophenyl)carbamoyl]-3-hydroxyphenyl}carbamate]: in data set [1], the log k was determined as 0.4705. The IC50 against BChE from equine serum was found to be 200 ± 7 µM; in data set [3] it was 62.4 ± 1.42 µM. Further, the “SI (index selectivity) = IC50” value at BChE from equine serum is given as 0.31.

As for `O=C(Nc1ccc(C(=O)Nc2ccccc2F)c(O)c1)OCc1ccccc1` [Compound 6, Benzyl{4-[(2-fluorophenyl)carbamoyl]-3-hydroxyphenyl}carbamate], in data set [1], the log k stood at 0.3577. Besides, at BChE from equine serum, half-maximal inhibition (IC50) was put at 70.8 ± 5.61 µM and the “SI (index selectivity) = IC50” value is on record as 0.71. This molecule showed an IC50 in data set [3] of 50.07 ± 0.06 µM.

Take `O=C(Nc1ccc(C(=O)Nc2cc(Cl)cc(Cl)c2)c(O)c1)OCc1ccccc1` [Compound 25, Benzyl{4-[(3,5-dichlorophenyl)carbamoyl]-3-hydroxyphenyl}carbamate]: the log k in data set [1] came out at 0.9084. The IC50 against BChE from equine serum was 143 ± 3.69 µM; in data set [3], 50.62 ± 0.38 µM. Also, on BChE from equine serum, the “SI (index selectivity) = IC50” value was found to be 0.35.
